Target: Pim-1 (Homo sapiens, UniProt P11309)
Assay: X-ray crystal structure
Format: biochemical

Work on `O=C/C=C/c1ccccc1O` [2′-HCA] yielded an IC50 of roughly 3 µM.

Reference: paper PMC4490130 (Cancer research, 2015)
